# Measurements published in US20110136751A1, “Use of Polyphenols in the Treatment of Cancer” (Green Molecular, priority 2009, published 2011).
# Columns and labels:
# Assay in all cases: IC50 on cell viability, Cell Counting Kit-8
# Assay type in all cases: cell-based
# [1] = test system: MEWO; details: Homo sapiens; code 26, MEWO, Skin Melanoma; cell viability 120 h after administration
# Experimental: (§1) A panel of 36 human cell lines were first tested in terms of population doubling time and growth curves to determine the conditions for further assays. The cells were also tested to determine the dose of radiation that produces 50% cell viability (D50). […] Cell viability was determined 120 h after the administration of the compounds using the Cell Counting Kit-8 (Dojindo Molecular Technologies, Inc, Rockville, Md.). In the experiments, 0.1% SDS and 1% DMSO were used as positive and negative controls, respectively. Final concentrations of the compounds used in the experiments are listed below in Table 5: […]
# [2] = test system: A-673; details: Homo sapiens, A673; code 36, A-673, Muscle Rhabdomyosarcoma; cell viability 120 h after administration
# Experimental: as §1
# [3] = test system: LN-18; details: Homo sapiens; code 10, LN-18, Brain Gliblastoma; cell viability 120 h after administration
# Experimental: as §1
# [4] = test system: Panc 10 05; details: Homo sapiens, Panc1005; code 33, Panc 10 05, Pancreas Adenocarcinoma; cell viability 120 h after administration
# Experimental: as §1
# [5] = test system: HPAF-II; details: Homo sapiens; code 32, HPAF-II, Pancreas Adenocarcinoma; cell viability 120 h after administration
# Experimental: as §1
# [6] = test system: SH-SY5Y; details: Homo sapiens; code 16, SH-SY5Y, Brain Neuroblastoma; cell viability 120 h after administration
# Experimental: as §1
# [7] = test system: C32; details: Homo sapiens; code 24, C32, Skin Melanoma; cell viability 120 h after administration
# Experimental: as §1
# [8] = test system: BxPC-3; details: Homo sapiens; code 31, BxPC-3, Pancreas Adenocarcinoma; cell viability 120 h after administration
# Experimental: as §1
# [9] = test system: A-172; details: Homo sapiens; code 12, A-172, Brain Gliblastoma; cell viability 120 h after administration
# Experimental: as §1
# [10] = test system: MDA-MB-231; details: Homo sapiens; code 3, MDA-MB-231, Breast Adenocarcinoma; cell viability 120 h after administration
# Experimental: as §1
# [11] = test system: Panc-1; details: Homo sapiens; code 34, Panc-1, Pancreas Carcinoma Epithiloid; cell viability 120 h after administration
# Experimental: as §1
# [12] = test system: BT-20; details: Homo sapiens; code 1, BT-20, Breast Carcinoma; cell viability 120 h after administration
# Experimental: as §1
# [13] = test system: MCF-7; details: Homo sapiens, MCF7; code 2, MCF-7, Breast Adenocarcinoma; cell viability 120 h after administration
# Experimental: as §1
# [14] = test system: HCT 116; details: Homo sapiens; code 6, HCT 116, Colorectal Carcinoma; cell viability 120 h after administration
# Experimental: as §1
# [15] = test system: SK-MEL-2; details: Homo sapiens; code 25, SK-MEL-2, Skin Melanoma; cell viability 120 h after administration
# Experimental: as §1
# [16] = test system: SK-ES-1; details: Homo sapiens, SK-ES1; code 30, SK-ES-1, Bone Osteosarcoma; cell viability 120 h after administration
# Experimental: as §1
# [17] = test system: MNNG-HOS; details: Homo sapiens; code 29, MNNG-HOS, Bone Osteosarcoma; cell viability 120 h after administration
# Experimental: as §1
# [18] = test system: HBL-52; details: Homo sapiens; code 19, HBL-52, Brain Meningioma; cell viability 120 h after administration
# Experimental: as §1
# [19] = test system: A549; details: Homo sapiens; code 22, A549, Lung Carcinoma; cell viability 120 h after administration
# Experimental: as §1
# [20] = test system: MSTO-211H; details: Homo sapiens; code 21, MSTO-211H, Lung Biphasic Mesothelioma; cell viability 120 h after administration
# Experimental: as §1
# [21] = test system: NCI-H4BO; details: Homo sapiens; code 20, NCI-H4BO, Lung Carcinoma; cell viability 120 h after administration
# Experimental: as §1
# [22] = test system: HT-29; details: Homo sapiens; code 8, HT-29, Colorectal Adenocarcinoma; cell viability 120 h after administration
# Experimental: as §1
# [23] = test system: HCT-15; details: Homo sapiens; code 7, HCT-15, Colorectal Adenocarcinoma; cell viability 120 h after administration
# Experimental: as §1
# [24] = test system: LN229; details: Homo sapiens, LN-229; code 11, LN229, Brain Gliblastoma; cell viability 120 h after administration
# Experimental: as §1
# [25] = test system: IMR-32; details: Homo sapiens; code 15, IMR-32, Brain Neuroblastoma; cell viability 120 h after administration
# Experimental: as §1
# [26] = test system: SW-872; details: Homo sapiens, SW872; code 18, SW-872, Connective tissue Fibrosarcoma; cell viability 120 h after administration
# Experimental: as §1
# [27] = test system: A375; details: Homo sapiens, A-375; code 23, A375, Skin Melanoma; cell viability 120 h after administration
# Experimental: as §1
# [28] = test system: A-204; details: Homo sapiens, A204; code 35, A-204, Muscle Rhabdomyosarcoma; cell viability 120 h after administration
# Experimental: as §1
# [29] = test system: T-47D; details: Homo sapiens, T47D; code 4, T-47D, Breast Carcinoma; cell viability 120 h after administration
# Experimental: as §1
# [30] = test system: MML-1; details: Homo sapiens; code 27, MML-1, Skin Melanoma; cell viability 120 h after administration
# Experimental: as §1
Structure (SMILES),IC50 [1] [µM],IC50 [2] [µM],IC50 [3] [µM],IC50 [4] [µM],IC50 [5] [µM],IC50 [6] [µM],IC50 [7] [µM],IC50 [8] [µM],IC50 [9] [µM],IC50 [10] [µM],IC50 [11] [µM],IC50 [12] [µM],IC50 [13] [µM],IC50 [14] [µM],IC50 [15] [µM],IC50 [16] [µM],IC50 [17] [µM],IC50 [18] [µM],IC50 [19] [µM],IC50 [20] [µM],also measured
"COc1cc(/C=C/c2ccc(O)cc2)cc(OC)c1 [t-PTER, trans-3,5-dimethoxy-4′-hydroxystilbene]",39,5.8,18.1,46.3,55.6,31.7,30.2,31.1,29.7,62.8,50.1,96.9,39.4,45.2,17.3,42.7,12.3,33.2,25.8,12.3,IC50 [21]: 16.6 µM; IC50 [22]: 28.4 µM; IC50 [23]: 49.5 µM; IC50 [24]: 14.3 µM; IC50 [25]: 42.8 µM; IC50 [26]: 25.8 µM; IC50 [27]: 75.3 µM; IC50 [28]: 23.4 µM; IC50 [29]: 35 µM; IC50 [30]: 16.9 µM
"O=c1c(O)c(-c2ccc(O)c(O)c2)oc2cc(O)cc(O)c12 [QUER, quercetin]",8.59,4.09,9.72,23,20.2,4.38,22.1,15.9,10,20.7,62.5,9.21,19.7,56.9,11.6,8.2,9.91,22.8,13.4,19.8,IC50 [21]: 10.1 µM; IC50 [22]: 18.7 µM; IC50 [23]: 12.4 µM; IC50 [24]: 8.12 µM; IC50 [25]: 20.2 µM; IC50 [26]: 3.51 µM; IC50 [27]: 19.6 µM; IC50 [28]: 18.1 µM; IC50 [29]: 10.7 µM; IC50 [30]: 10.8 µM
"Oc1ccc(/C=C/c2cc(O)cc(O)c2)cc1 [RI, trans-3,5,4′-trihydroxystilbene, reference compound]",17.1,6.73,28.4,24.2,86.1,26.1,18.5,13.6,47.6,15.1,33,66,49.9,31.4,10.7,27.2,11.7,29.1,16.3,6.37,IC50 [21]: 11.5 µM; IC50 [22]: 27.9 µM; IC50 [23]: > 100 µM; IC50 [24]: 11.2 µM; IC50 [25]: 43 µM; IC50 [26]: 81.1 µM; IC50 [27]: 24.9 µM; IC50 [28]: 19 µM; IC50 [29]: 25.6 µM; IC50 [30]: 10.3 µM
